Key:
Type in all cases: in vivo
Spodoptera littoralis = Spodoptera littoralis (Egyptian cotton leafworm) leaf disc spray test; conditions: foliar, 72 h, 200 ppm spray on cotton leaf discs, L1 larvae, mortality, feeding behavior, growth regulation 3 days after treatment
Text: Cotton leaf discs were placed on agar in a 24-well microtiter plate and sprayed with test solutions at an application rate of 200 ppm. After drying, the leaf discs were infested with 5 L1 larvae. The samples were checked for mortality, feeding behavior, and growth regulation 3 days after treatment (DAT).

Heliothis virescens = Heliothis virescens (tobacco budworm) egg/artificial diet test; conditions: 96 h, 200 ppm (concentration in well 18 ppm), eggs 0-24 h old on artificial diet, 4 days, egg mortality, larval mortality, growth regulation
Method: Eggs (0-24 h old) were placed in 24-well microtiter plate on artificial diet and treated with test solutions at an application rate of 200 ppm (concentration in well 18 ppm) by pipetting. After an incubation period of 4 days, samples were checked for egg mortality, larval mortality, and growth regulation.

Plutella xylostella = Plutella xylostella (diamond back moth) artificial diet test; conditions: 144 h, 200 ppm (concentration in well 18 ppm), L2 larvae, 6 days, larval mortality, growth regulation
Method: 24-well microtiter plate (MTP) with artificial diet was treated with test solutions at an application rate of 200 ppm (concentration in well 18 ppm) by pipetting. After drying, the MTP's were infested with L2 larvae (7-12 per well). After an incubation period of 6 days, samples were checked for larval mortality and growth regulation.

Diabrotica balteata = Diabrotica balteata (corn root worm) artificial diet test; conditions: 120 h, 200 ppm (concentration in well 18 ppm), L2 larvae, 5 days, larval mortality, growth regulation
Method: A 24-well microtiter plate (MTP) with artificial diet was treated with test solutions at an application rate of 200 ppm (concentration in well 18 ppm) by pipetting. After drying, the MTP's were infested with L2 larvae (6-10 per well). After an incubation period of 5 days, samples were checked for larval mortality and growth regulation.

Myzus persicae = Myzus persicae (green peach aphid), systemic test; conditions: 144 h, roots of infested pea seedlings in test solution, 6 days, mortality, special effects on the plant
Text: Myzus persicae (Green peach aphid), systemic test: Roots of pea seedlings, infested with an aphid population of mixed ages, are placed directly in the test solutions at an application rate of 12.5 ppm. 6 days after introduction, samples are checked for mortality and special effects on the plant. The following compounds gave at least 80% control of Myzus persicae: A3, B2, B3, B5, B6, B7, B8, B11, B12, C1, C2, C3,C4, C5, C6, C7, D1, E1, E2, G1, G3, G5, G6, H1, H5, H6, H9, H10, H11, H12, H13, H14, H18, H19, H20, H24, H25, and H26.

Thrips tabaci = Thrips tabaci (onion thrips) leaf disc spray test; conditions: foliar, 168 h, 200 ppm spray on sunflower leaf discs, mixed ages, 7 days, mortality
Method: [The procedure below names another target; the source lists this target under the same test.] Sunflower leaf discs were placed on agar in a 24-well microtiter plate and sprayed with test solutions at an application rate of 200 ppm. After drying, the leaf discs were infested with an […] population of mixed ages. After an incubation period of 7 days, samples were checked for mortality.

Tetranychus urticae = Tetranychus urticae (two-spotted spider mite) leaf disc spray test; conditions: foliar, 192 h, 200 ppm spray on bean leaf discs, mixed ages, 8 days, egg, larval and adult mortality
Text: Bean leaf discs on agar in 24-well microtiter plates were sprayed with test solutions at an application rate of 200 ppm. After drying, the leaf discs are infested with mite populations of mixed ages. 8 days later, discs are checked for egg mortality, larval mortality, and adult mortality.

Cc1cc(C2=NOC(c3cc(Cl)cc(Cl)c3)(C(F)(F)F)C2)ncc1C(=O)N[C@@H]1CON(CC(F)(F)F)C1=O (stereo partly drawn) [Compound C6, 6-[5-(3,5-Dichloro-phenyl)-5-trifluoromethyl-4,5-dihydro-isoxazol-3-yl]-4-methyl-N— [(R)-3-oxo-2-(2,2,2-trifluoro-ethyl)-isoxazolidin-4-yl]-nicotinamide]
≥ 80%: pest or weed control at 200 ppm (Spodoptera littoralis) | pest or weed control at 200 ppm (Heliothis virescens) | pest or weed control at 200 ppm (Plutella xylostella) | pest or weed control at 200 ppm (Diabrotica balteata) | pest or weed control at 12.5 ppm (Myzus persicae) | pest or weed control at 200 ppm (Thrips tabaci) | pest or weed control at 200 ppm (Tetranychus urticae)

CCN1CC(CNC(=O)c2ccc(C3=NOC(c4cc(Cl)cc(Cl)c4)(C(F)(F)F)C3)cc2C)CS1(=O)=O (stereo not shown) [Compound D1, 4-[5-(3,5-Dichloro-phenyl)-5-trifluoromethyl-4,5-dihydro-isoxazol-3-yl]-N-(2-ethyl-1,1-dioxo-1lambda*6*-isothiazolidin-4-ylmethyl)-2-methl-benzamide]
≥ 80%: pest or weed control at 200 ppm (Spodoptera littoralis) | pest or weed control at 200 ppm (Heliothis virescens) | pest or weed control at 200 ppm (Plutella xylostella) | pest or weed control at 200 ppm (Diabrotica balteata) | pest or weed control at 12.5 ppm (Myzus persicae) | pest or weed control at 200 ppm (Thrips tabaci) | pest or weed control at 200 ppm (Tetranychus urticae)

Cc1cc(C2=NOC(c3cc(Cl)cc(Cl)c3)(C(F)(F)F)C2)ccc1C(=O)N[C@H]1CON(C)C1=O (stereo partly drawn) [Compound E1, 4-[5-(3,5-Dichloro-phenyl)-5-trifluoromethyl-4,5-dihydro-isoxazol-3-yl]-2-methyl-N-((S)-2-methyl-3-oxo-isoxazolidin-4-yl)-benzamide]
≥ 80%: pest or weed control at 200 ppm (Spodoptera littoralis) | pest or weed control at 200 ppm (Heliothis virescens) | pest or weed control at 200 ppm (Plutella xylostella) | pest or weed control at 200 ppm (Diabrotica balteata) | pest or weed control at 12.5 ppm (Myzus persicae) | pest or weed control at 200 ppm (Thrips tabaci) | pest or weed control at 200 ppm (Tetranychus urticae)

CCN1OC[C@H](NC(=O)c2ccc(C3=NOC(c4cc(Cl)cc(Cl)c4)(C(F)(F)F)C3)cc2C)C1=O (stereo partly drawn) [Compound E2, 4-[5-(3,5-Dichloro-phenyl)-5-trifluoromethyl-4,5-dihydro-isoxazol-3-yl]-2-methyl-N-((S)-2-ethyl-3-oxo-isoxazolidin-4-yl)-benzamide]
≥ 80%: pest or weed control at 200 ppm (Spodoptera littoralis) | pest or weed control at 200 ppm (Heliothis virescens) | pest or weed control at 200 ppm (Plutella xylostella) | pest or weed control at 200 ppm (Diabrotica balteata) | pest or weed control at 12.5 ppm (Myzus persicae) | pest or weed control at 200 ppm (Thrips tabaci) | pest or weed control at 200 ppm (Tetranychus urticae)

CCN1OC[C@@H](NC(=O)c2ccc(C3=NO[C@@](c4cc(Cl)cc(Cl)c4)(C(F)(F)F)C3)cc2C)C1=O [Compound G1, 4-[5-(3,5-dichloro-phenyl)-5-(S)-trifluoromethyl-4,5-dihydro-isoxazol-3-yl]-2-methyl-N—((R)-2-ethyl-3-oxo-isoxazolidin-4-yl)-benzamide]
≥ 80%: pest or weed control at 200 ppm (Spodoptera littoralis) | pest or weed control at 200 ppm (Heliothis virescens) | pest or weed control at 200 ppm (Plutella xylostella) | pest or weed control at 200 ppm (Diabrotica balteata) | pest or weed control at 12.5 ppm (Myzus persicae) | pest or weed control at 200 ppm (Thrips tabaci) | pest or weed control at 200 ppm (Tetranychus urticae)

CCN1OC[C@H](NC(=O)c2ccc(C3=NO[C@@](c4cc(Cl)cc(Cl)c4)(C(F)(F)F)C3)cc2C)C1=O [Compound G3, 4-[5-(3,5-dichloro-phenyl)-5-(S)-trifluoromethyl-4,5-dihydro-isoxazol-3-yl]-2-methyl-N—((S)-2-ethyl-3-oxo-isoxazolidin-4-yl)-benzamide]
≥ 80%: pest or weed control at 200 ppm (Spodoptera littoralis) | pest or weed control at 200 ppm (Heliothis virescens) | pest or weed control at 200 ppm (Plutella xylostella) | pest or weed control at 200 ppm (Diabrotica balteata) | pest or weed control at 12.5 ppm (Myzus persicae) | pest or weed control at 200 ppm (Thrips tabaci) | pest or weed control at 200 ppm (Tetranychus urticae)

Cc1cc(C2=NO[C@@](c3cc(Cl)cc(Cl)c3)(C(F)(F)F)C2)ccc1C(=O)N[C@@H]1CON(CC(F)F)C1=O [Compound G5, 4-[5-(3,5-Dichloro-phenyl)-5-(S)-trifluoromethyl-4,5-dihydro-isoxazol-3-yl]-2-methyl-N—((R)-2-(2,2-difluoroethyl)-3-oxo-isoxazolidin-4-yl)-benzamide]
≥ 80%: pest or weed control at 200 ppm (Spodoptera littoralis) | pest or weed control at 200 ppm (Heliothis virescens) | pest or weed control at 200 ppm (Plutella xylostella) | pest or weed control at 200 ppm (Diabrotica balteata) | pest or weed control at 12.5 ppm (Myzus persicae) | pest or weed control at 200 ppm (Thrips tabaci) | pest or weed control at 200 ppm (Tetranychus urticae)

From patent US10206400B2, “Insecticidal compounds based on isoxazoline derivatives” (Syngenta Crop Protection LLC, priority 2009, dated 2019)
